Molecular target: T1, Tery_3377 (IdiA/FutA) (Trichodesmium erythraeum, UniProt Q10Z45)
T1 construct: mature protein, predicted signal peptide (residues 1-31) removed, C-terminal His6 tag, pET21a(+), E. coli BL21(DE3); two monomers per asymmetric unit
Experiment: X-ray crystal structure, […] Å
Conditions: two citrates bound in the substrate-binding cleft together with one Fe3+ that they coordinate, about 7 Å from the empty iron site; protein citrate-treated before crystallisation; carboxylic acids mix

T1 sequence (Q10Z45 entry or part of it): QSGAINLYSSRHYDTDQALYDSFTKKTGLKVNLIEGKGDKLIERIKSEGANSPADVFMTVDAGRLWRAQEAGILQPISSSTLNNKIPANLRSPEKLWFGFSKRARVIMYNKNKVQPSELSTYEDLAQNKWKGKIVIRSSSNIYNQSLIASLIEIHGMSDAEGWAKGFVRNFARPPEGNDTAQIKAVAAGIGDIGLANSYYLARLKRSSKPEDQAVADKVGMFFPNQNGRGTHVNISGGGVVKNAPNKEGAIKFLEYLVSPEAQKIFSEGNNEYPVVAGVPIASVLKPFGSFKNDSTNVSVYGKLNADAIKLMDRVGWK

SMILES: O=C(O)CC(O)(CC(=O)O)C(=O)O [citrate]
- X-ray crystal structure, 1.2 Å: traps the citrate molecule with bound iron in the substrate-binding cleft

From article PMC6254336, “Structural and functional characterization of IdiA/FutA (Tery_3377), an iron-binding protein from the ocean diazotroph Trichodesmium erythraeum” (The Journal of Biological Chemistry, 2018)
